Data: ChEMBL document CHEMBL3272126 (J Med Chem, 1977)

Tests used:
Mus musculus [1] = assay: Anti-tremorine activity against sc dosed albino mouse assessed as normalized dose for reversal of tremorine-induced spontaneous activity depression; assay type: functional
Mus musculus [2] = assay: Toxicity in sc dosed albino mouse assessed as mydriasis; assay type: organism-based; conditions: in vivo

SMILES	ND (Mus musculus [1]) [mg/kg]	ED50 (Mus musculus [2]) [mg/kg]
CN1[C@@H]2CC[C@H]1CC(OC(=O)[C@H](CO)c1ccccc1)C2 (stereo partly drawn) [ENDO-ATROPINE]	2.2	0.061
CN1[C@@H]2C[C@@H](OC(=O)[C@H](CO)c3ccccc3)C[C@H]1[C@@H]1O[C@@H]12 [SCOPOLAMINE]	1.3	0.012
